# According to BindingDB's records for doi:10.1016/0960-894X(95)00583-F (1996):
# Experiment: Compound was evaluated for binding affinity against [3H]- Cl-DPDPE labeled Opioid receptor delta 1 in guinea-pig brain homogenate.
row,Structure (SMILES),Ki
1,"O=C(/C=C/c1ccc(Cl)cc1)N[C@@H]1CC[C@@]2(O)[C@H]3Cc4ccc(O)c5c4C2(CCN3CC2CC2)[C@H]1O5 [1N-[4-cyclopropylmethyl-10,17-dihydroxy-(5R,13R,14R,17S)-12-oxa-4-azapentacyclo[9.6.1.01,13.05,17.07,18]octadeca-7(18),8,10-trien-14-yl]-3-(4-chlorophenyl)-(E)-2-propenamide]",5 nM
2,"Cc1ccc(/C=C/C(=O)N[C@@H]2CC[C@@]3(O)[C@H]4Cc5ccc(O)c6c5C3(CCN4CC3CC3)[C@H]2O6)cc1 [1N-[4-cyclopropylmethyl-10,17-dihydroxy-(5R,13R,14R,17S)-12-oxa-4-azapentacyclo[9.6.1.01,13.05,17.07,18]octadeca-7(18),8,10-trien-14-yl]-3-(4-methylphenyl)-(E)-2-propenamide]",9.6 nM
3,"O=C(/C=C/c1ccc([N+](=O)[O-])cc1)N[C@@H]1CC[C@@]2(O)[C@H]3Cc4ccc(O)c5c4C2(CCN3CC2CC2)[C@H]1O5 [1N-[4-cyclopropylmethyl-10,17-dihydroxy-(5R,13R,14R,17S)-12-oxa-4-azapentacyclo[9.6.1.01,13.05,17.07,18]octadeca-7(18),8,10-trien-14-yl]-3-(4-nitrophenyl)-(E)-2-propenamide]",5.1 nM
4,"O=C(/C=C/c1ccccc1)N[C@@H]1CC[C@@]2(O)[C@H]3Cc4ccc(O)c5c4[C@@]2(CCN3CC2CC2)[C@H]1O5 [17-Cyclopropylmethyl-3,14beta-dihydroxy-4,5alpha-epoxy-6beta-(cinnamoylamino)morphinan]",3.1 nM
5,COC(=O)/C=C/C(=O)N[C@@H]1CC[C@@]2(O)[C@H]3Cc4ccc(O)c5c4[C@@]2(CCN3CC2CC2)[C@H]1O5 [Beta-Funeltrexamine],22 nM
